# Measurements from article PMC5430895 (Scientific Reports, 2017).
# Tests used:
# hOCT1 [1] = target: T1, hOCT1 (Homo sapiens, UniProt O15245); assay: Inhibition of ASP+ uptake in hOCT1-HEK293 cells (apparent affinity); type: cell-based; design: expressed in transfected cells; host or cells: HEK293; details: hOCT1-HEK293, ASP+ 1 µM
# T1 sequence (O15245 1-554): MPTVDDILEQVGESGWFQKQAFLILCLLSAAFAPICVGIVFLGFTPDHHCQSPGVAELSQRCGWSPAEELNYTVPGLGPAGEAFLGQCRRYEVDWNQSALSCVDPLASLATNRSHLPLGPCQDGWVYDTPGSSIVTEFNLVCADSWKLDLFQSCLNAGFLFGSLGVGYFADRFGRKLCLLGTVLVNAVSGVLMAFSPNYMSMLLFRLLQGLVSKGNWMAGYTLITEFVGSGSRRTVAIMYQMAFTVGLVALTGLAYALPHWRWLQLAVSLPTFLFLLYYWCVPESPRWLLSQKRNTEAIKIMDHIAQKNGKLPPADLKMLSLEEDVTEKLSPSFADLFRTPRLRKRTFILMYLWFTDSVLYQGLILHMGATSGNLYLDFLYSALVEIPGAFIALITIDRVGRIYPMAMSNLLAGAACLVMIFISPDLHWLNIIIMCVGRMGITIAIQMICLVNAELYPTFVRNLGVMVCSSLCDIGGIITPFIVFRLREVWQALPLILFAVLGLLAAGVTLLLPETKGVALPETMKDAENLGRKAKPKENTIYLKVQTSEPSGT
# hOCT2 = target: T2, hOCT2 (Homo sapiens, UniProt O15244); assay: Inhibition of ASP+ uptake in hOCT2-HEK293 cells (apparent affinity); type: cell-based; design: expressed in transfected cells; host or cells: HEK293; details: hOCT2-HEK293, ASP+ 1 µM
# T2 sequence (O15244 1-555): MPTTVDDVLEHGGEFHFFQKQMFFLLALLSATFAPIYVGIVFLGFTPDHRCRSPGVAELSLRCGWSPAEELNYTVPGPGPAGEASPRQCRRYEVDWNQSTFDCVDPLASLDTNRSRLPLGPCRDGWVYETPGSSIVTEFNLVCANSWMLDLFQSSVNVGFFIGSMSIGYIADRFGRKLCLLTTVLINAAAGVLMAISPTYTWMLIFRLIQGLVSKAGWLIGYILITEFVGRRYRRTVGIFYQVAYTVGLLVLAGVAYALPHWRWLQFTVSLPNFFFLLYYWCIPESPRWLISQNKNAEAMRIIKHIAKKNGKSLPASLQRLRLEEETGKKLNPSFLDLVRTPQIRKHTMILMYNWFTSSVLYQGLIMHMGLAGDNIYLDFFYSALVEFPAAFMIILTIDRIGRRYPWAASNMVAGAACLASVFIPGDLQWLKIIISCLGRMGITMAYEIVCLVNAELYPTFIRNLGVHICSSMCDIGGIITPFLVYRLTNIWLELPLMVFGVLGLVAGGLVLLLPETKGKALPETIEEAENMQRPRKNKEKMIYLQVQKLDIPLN
# hOCT1 [2] = target: T1, hOCT1; assay: Saracatinib uptake in hOCT1-overexpressing HEK293 cells (HPLC-UV); details: hOCT1-HEK293, 10 µM saracatinib, 10 min, difference of accumulation at 4 °C and 37 °C
# WT-HEK293 cells = assay: Saracatinib uptake in WT-HEK293 cells (HPLC-UV); details: WT-HEK293, 10 µM saracatinib, 10 min
# RASF = assay: PDGF-induced proliferation of cultured RASF (cell counting); type: cell-based, human; details: 18 h, PDGF 10 ng/ml
# Protocol: Data are shown as mean ± SEM. […] Cells were grown at standard conditions. […] Cell number was evaluated with a […] cell counter (Roche Innovatis, Reutlingen, Germany).
# hMATE1 = target: T3, hMATE1 (Homo sapiens, UniProt Q96FL8); assay: Saracatinib uptake in hMATE1-expressing HEK293 cells (HPLC-UV); details: hMATE1-HEK293, 10 µM saracatinib, 10 min; not significantly different from WT
# T3 sequence (Q96FL8 1-570): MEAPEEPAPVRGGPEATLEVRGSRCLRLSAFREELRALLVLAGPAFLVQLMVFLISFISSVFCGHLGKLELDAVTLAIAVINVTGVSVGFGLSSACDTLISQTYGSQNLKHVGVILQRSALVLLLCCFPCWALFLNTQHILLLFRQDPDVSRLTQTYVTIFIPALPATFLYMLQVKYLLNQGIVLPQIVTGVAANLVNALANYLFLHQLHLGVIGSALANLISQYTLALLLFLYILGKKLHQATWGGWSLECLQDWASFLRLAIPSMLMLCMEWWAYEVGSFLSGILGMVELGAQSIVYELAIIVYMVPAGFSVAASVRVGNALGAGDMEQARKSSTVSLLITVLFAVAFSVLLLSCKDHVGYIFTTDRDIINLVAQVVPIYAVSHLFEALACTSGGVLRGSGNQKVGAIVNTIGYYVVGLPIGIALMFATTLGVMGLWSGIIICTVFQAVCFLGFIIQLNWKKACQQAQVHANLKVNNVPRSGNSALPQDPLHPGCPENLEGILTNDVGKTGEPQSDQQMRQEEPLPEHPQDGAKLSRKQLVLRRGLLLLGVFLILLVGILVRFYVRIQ
# hOCT3 = target: T4, hOCT3 (Homo sapiens, UniProt O75751); assay: Saracatinib uptake in hOCT3-overexpressing HEK293 cells (HPLC-UV); details: hOCT3-HEK293, 10 µM saracatinib, 10 min, difference of accumulation at 4 °C and 37 °C
# T4 sequence (O75751 1-556): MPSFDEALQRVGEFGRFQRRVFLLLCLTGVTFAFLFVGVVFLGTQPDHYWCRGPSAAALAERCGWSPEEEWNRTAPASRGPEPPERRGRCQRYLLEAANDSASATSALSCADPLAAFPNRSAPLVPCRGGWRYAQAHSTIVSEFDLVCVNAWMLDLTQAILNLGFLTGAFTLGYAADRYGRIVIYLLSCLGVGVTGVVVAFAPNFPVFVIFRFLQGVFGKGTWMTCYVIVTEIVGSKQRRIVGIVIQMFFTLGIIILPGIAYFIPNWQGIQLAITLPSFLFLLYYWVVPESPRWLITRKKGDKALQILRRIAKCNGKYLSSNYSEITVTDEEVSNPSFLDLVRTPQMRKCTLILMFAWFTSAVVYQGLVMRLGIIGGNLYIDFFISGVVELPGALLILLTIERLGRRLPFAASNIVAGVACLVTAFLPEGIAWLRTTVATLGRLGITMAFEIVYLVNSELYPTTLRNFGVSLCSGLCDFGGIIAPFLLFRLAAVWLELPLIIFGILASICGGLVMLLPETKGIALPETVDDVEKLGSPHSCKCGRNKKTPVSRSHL
compound,measurement,setting,value
"CN1CCN(CCOc2cc(OC3CCOCC3)c3c(Nc4c(Cl)ccc5c4OCO5)ncnc3c2)CC1 [saracatinib, N-(5-chloro-1,3-benzodioxol-4-yl)-7-[2-(4-methylpiperazin-1-yl)ethoxy]-5-(tetrahydro-2H-pyran-4-yloxy)quinazolin-4-amine]",IC50,hOCT1 [1],57 µM
same,IC50,hOCT2,0.9 µM
same,saracatinib accumulation (specific uptake),hOCT1 [2],8.8 ± 0.9 nmol/mg protein
same,saracatinib accumulation (specific uptake),WT-HEK293 cells,1.8 ± 0.5 nmol/mg protein
same,inhibition of PDGF-induced cell proliferation,RASF; 0.1 µM saracatinib,Complete inhibition
same,inhibition of PDGF-induced cell proliferation,RASF; 0.001–1 µM saracatinib,potent and dose-dependent inhibition
same,saracatinib accumulation (specific uptake),hMATE1,2.3 ± 0.7 nmol/mg protein
same,saracatinib accumulation (specific uptake),hOCT3,5.7 ± 0.1 nmol/mg protein
